In ChEMBL document CHEMBL4842344, “Design, synthesis and biological activity evaluation of novel scopoletin-NO donor derivatives against MCF-7 human breast cancer in vitro and in vivo” (Eur J Med Chem, 2021):
Values belong to the compound of their own block, whether it stands above or below them. Active and inactive are the calls of the source. No cut-off for these calls is given here.

Experiments:
MCF7 [1] = experiment: Antiproliferative activity against human MCF7 cells assessed as inhibition of cell growth measured after 48 hrs by MTT assay; assay type: functional, cell-based; conditions: MCF7, 48 h
MDA-MB-231 = experiment: Antiproliferative activity against human MDA-MB-231 cells assessed as inhibition of cell growth measured after 48 hrs by MTT assay; assay type: functional, cell-based; conditions: MDA-MB-231, 48 h
MCF-10A = experiment: Cytotoxicity against human MCF-10A cells assessed as reduction in cell viability measured after 48 hrs by MTT assay; assay type: cell-based
MCF7 [2] = experiment: Inhibition of cell proliferation in human MCF7 cells assessed as increase in intracellular NO production at 25 uM measured after 2.5 hrs by nitric oxide assay; assay type: functional, cell-based

SMILES: COc1ccc(CCNC(=O)c2cc3cc(OC)c(OCCCOc4no[n+]([O-])c4S(=O)(=O)c4ccccc4)cc3oc2=O)cc1
IC50 (MCF7 [1]): 750 nM | IC50 (MDA-MB-231): 1540 nM | IC50 (MCF-10A): 5370 nM | Activity (MCF7 [2]): Active

SMILES: COc1cc2cc(N)c(=O)oc2cc1OCCCOc1no[n+]([O-])c1S(=O)(=O)c1ccccc1
IC50 (MCF7 [1]): 2020 nM | IC50 (MDA-MB-231): 1390 nM | IC50 (MCF-10A): 6450 nM

SMILES: COc1cc2cc(C(=O)Nc3ccc(F)cc3)c(=O)oc2cc1OCCCOc1no[n+]([O-])c1S(=O)(=O)c1ccccc1
IC50 (MCF7 [1]): 860 nM | IC50 (MDA-MB-231): 1200 nM | IC50 (MCF-10A): 7210 nM | Activity (MCF7 [2]): Active

Continued by falling IC50 (MCF7 [1]), values first:

IC50 (MCF7 [1]): 740 nM | IC50 (MDA-MB-231): 1060 nM
SMILES: COc1cc2cc(C(=O)NCc3ccccc3)c(=O)oc2cc1OCCCOc1no[n+]([O-])c1S(=O)(=O)c1ccccc1
IC50 (MCF-10A): 7030 nM | Activity (MCF7 [2]): Active

IC50 (MCF7 [1]): 640 nM | IC50 (MDA-MB-231): 980 nM
SMILES: COc1cc2cc(C(=O)NCCc3ccccc3)c(=O)oc2cc1OCCCOc1no[n+]([O-])c1S(=O)(=O)c1ccccc1
IC50 (MCF-10A): 6330 nM | Activity (MCF7 [2]): Active

IC50 (MCF7 [1]): 600 nM | IC50 (MDA-MB-231): 690 nM
SMILES: COc1cc2cc(C(=O)NCCCc3ccc(F)cc3)c(=O)oc2cc1OCCCOc1no[n+]([O-])c1S(=O)(=O)c1ccccc1
IC50 (MCF-10A): 8920 nM | Activity (MCF7 [2]): Active

IC50 (MCF7 [1]): 560 nM | IC50 (MDA-MB-231): 780 nM
SMILES: COc1ccc(CNC(=O)c2cc3cc(OC)c(OCCCOc4no[n+]([O-])c4S(=O)(=O)c4ccccc4)cc3oc2=O)cc1
IC50 (MCF-10A): 5950 nM | Activity (MCF7 [2]): Active
